Results as given in patent US20260285846A1, “REV-ERB AGONISTS FOR TH17-MEDIATED INFLAMMATORY DISORDERS” (UNIVERSITY OF FLORID RESEARCH FOUNDATION, iNCORPORATED, priority 2021, published 2026).
pEC50: −log10 of the molar value.

molecular target: REV-ERBα LBD (Homo sapiens, UniProt P20393, DEL324-422); experiment: biochemical; conditions: FRET assay; 6xHistag-REV-ERBα LBD with FITC-labeled SMRT corepressor peptide; read-out: REVERBα (Agonism of REV-ERBα, EC50)
In short: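 Serially diluted ligands were incubated 2 h at 4° C, in triplicate, with E. coli-expressed His-REV-ERBα LBD (281-614 Δ324-422 or 381-579; 4 nM), Tb-anti-His (1 nM) and FITC-labelled SMRT peptide (400 nM). EC50 came from sigmoidal fits of the 520/495 nm TR-FRET ratio.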

Chain of REV-ERBα LBD (P20393 with tags, fused parts or gaps DEL324-422): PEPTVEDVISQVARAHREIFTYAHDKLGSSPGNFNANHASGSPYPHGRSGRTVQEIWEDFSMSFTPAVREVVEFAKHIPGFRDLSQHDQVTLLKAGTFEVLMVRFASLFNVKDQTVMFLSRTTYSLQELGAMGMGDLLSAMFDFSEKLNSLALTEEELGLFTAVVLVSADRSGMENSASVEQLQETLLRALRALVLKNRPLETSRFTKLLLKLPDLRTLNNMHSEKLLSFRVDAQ
Chain of REV-ERBα LBD (Q9Y618 2335-2356 partner limits assumed): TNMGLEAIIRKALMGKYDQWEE

Compound	pEC50
Cc1cnc(-c2cc3c(cc2F)c([C@H](NS(=O)(=O)C2CC2)C(F)F)cn3CC(C)(C)C)c(C(F)(F)F)n1 [Compound 144, (S)—N-(2,2-difluoro-1-(5-fluoro-6-(5-methyl-3-(trifluoromethyl)pyrazin-2-yl)-1-neopentyl-1H-indol-3-yl)ethyl)cyclopropanesulfonamide]	> 7.00
CC(C)(C)Cn1cc([C@H](NS(=O)(=O)C2CC2)C(F)F)c2cc(F)c(-c3cccnc3C(F)(F)F)nc21 [Compound 145, (S)—N-(2,2-difluoro-1-(5-fluoro-1-neopentyl-6-(2-(trifluoromethyl)pyridin-3-yl)-1H-pyrrolo[2,3-b]pyridin-3-yl)ethyl)cyclopropanesulfonamide]	> 7.00
O=S(=O)(N[C@@H](c1cn(C2CCC2)c2cc(-c3cccnc3C(F)(F)F)c(F)cc12)C(F)F)C1CC1 [Compound 146, (S)—N-(1-(1-cyclobutyl-5-fluoro-6-(2-(trifluoromethyl)pyridin-3-yl)-1H-indol-3-yl)-2,2-difluoroethyl)cyclopropanesulfonamide]	> 7.00
O=S(=O)(N[C@@H](c1cn(C2CCC2)c2nc(-c3cccnc3C(F)(F)F)c(F)cc12)C(F)F)C1CC1 [Compound 147]	> 7.00
CC(C)(C)Cn1cc([C@H](NS(=O)(=O)C2CC2)C(F)F)c2cc(F)c(-c3cc(F)cnc3C(F)(F)F)nc21 [Compound 148, (S)—N-(2,2-difluoro-1-(5-fluoro-6-(5-fluoro-2-(trifluoromethyl)pyridin-3-yl)-1-neopentyl-1H-pyrrolo[2,3-b]pyridin-3-yl)ethyl)cyclopropanesulfonamide]	> 7.00
O=S(=O)(N[C@@H](c1cn(C2CCC2)c2cc(-c3cc(F)cnc3C(F)(F)F)c(F)cc12)C(F)F)C1CC1 [Compound 149, (S)—N-(1-(1-cyclobutyl-5-fluoro-6-(5-fluoro-2-(trifluoromethyl)pyridin-3-yl)-1H-indol-3-yl)-2,2-difluoroethyl)cyclopropanesulfonamide]	> 7.00
O=S(=O)(N[C@@H](c1cn(C2CCC2)c2nc(-c3cc(F)cnc3C(F)(F)F)c(F)cc12)C(F)F)C1CC1 [Compound 150, (S)—N-(1-(1-cyclobutyl-5-fluoro-6-(5-fluoro-2-(trifluoromethyl)pyridin-3-yl)-1H-pyrrolo[2,3-b]pyridin-3-yl)-2,2-difluoroethyl)cyclopropanesulfonamide]	> 7.00
N#CC1CC(n2cc([C@H](NS(=O)(=O)C3CC3)C(F)F)c3cc(F)c(-c4cc(F)cnc4C(F)(F)F)cc32)C1 (stereo partly drawn) [Compound 151, (S)—N-(1-(1-(3-cyanocyclobutyl)-5-fluoro-6-(5-fluoro-2-(trifluoromethyl)pyridin-3-yl)-1H-indol-3-yl)-2,2-difluoroethyl)cyclopropanesulfonamide]	> 7.00
O=S(=O)(N[C@@H](c1cn(C2CNC2)c2cc(-c3ccc(F)cc3C(F)(F)F)c(F)cc12)C(F)F)C1CC1 [Compound 152, (S)—N-(1-(1-(azetidin-3-yl)-5-fluoro-6-(4-fluoro-2-(trifluoromethyl)phenyl)-1H-indol-3-yl)-2,2-difluoroethyl)cyclopropanesulfonamide]	< 6.00
CC(C)(C)Cn1cc([C@H](NS(=O)(=O)C2CC2)C(F)F)c2cc(F)c(-c3ccc(F)cc3C(F)(F)F)nc21 [Compound 153, (S)—N-(2,2-difluoro-1-(5-fluoro-6-(4-fluoro-2-(trifluoromethyl)phenyl)-1-neopentyl-1H-pyrrolo[2,3-b]pyridin-3-yl)ethyl)cyclopropanesulfonamide]	> 7.00
O=S(=O)(N[C@@H](c1cn(C2CCC2)c2cc(-c3ccc(F)cc3C(F)(F)F)c(F)cc12)C(F)F)C1CC1 [Compound 154, (S)—N-(1-(1-cyclobutyl-5-fluoro-6-(4-fluoro-2-(trifluoromethyl)phenyl)-1H-indol-3-yl)-2,2-difluoroethyl)cyclopropanesulfonamide]	> 7.00
O=S(=O)(N[C@@H](c1cn(C2CCC2)c2nc(-c3ccc(F)cc3C(F)(F)F)c(F)cc12)C(F)F)C1CC1 [Compound 155, (S)—N-(1-(1-cyclobutyl-5-fluoro-6-(4-fluoro-2-(trifluoromethyl)phenyl)-1H-pyrrolo[2,3-b]pyridin-3-yl)-2,2-difluoroethyl)cyclopropanesulfonamide]	> 7.00
O=S(=O)(N[C@@H](c1cn(C2CCC2)c2cc(-c3ncc(F)cc3C(F)(F)F)c(F)cc12)C(F)F)C1CC1 [Compound 156, (S)—N-(1-(1-cyclobutyl-5-fluoro-6-(5-fluoro-3-(trifluoromethyl)pyridin-2-yl)-1H-indol-3-yl)-2,2-difluoroethyl)cyclopropanesulfonamide]	> 7.00
Cc1cnc(C(F)(F)F)c(-c2nc3c(cc2F)c([C@H](NS(=O)(=O)C2CC2)C(F)F)cn3C2CCC2)c1 [Compound 157, (S)—N-(1-(1-cyclobutyl-5-fluoro-6-(5-methyl-2-(trifluoromethyl)pyridin-3-yl)-1H-pyrrolo[2,3-b]pyridin-3-yl)-2,2-difluoroethyl)cyclopropanesulfonamide]	> 7.00
N#Cc1cccc(C(F)(F)F)c1-c1nc2c(cc1F)c([C@H](NS(=O)(=O)C1CC1)C(F)F)cn2C1CCC1 [Compound 158, N-((1S)-1-(6-(2-cyano-6-(trifluoromethyl)phenyl)-1-cyclobutyl-5-fluoro-1H-pyrrolo[2,3-b]pyridin-3-yl)-2,2-difluoroethyl)cyclopropanesulfonamide]	> 7.00
N#Cc1nccc(C(F)(F)F)c1-c1cc2c(cc1F)c([C@H](NS(=O)(=O)C1CC1)C(F)F)cn2C1CCC1 [Compound 159, N-((1S)-1-(6-(2-cyano-4-(trifluoromethyl)pyridin-3-yl)-1-cyclobutyl-5-fluoro-1H-indol-3-yl)-2,2-difluoroethyl)cyclopropanesulfonamide]	> 7.00
N#Cc1nccc(C(F)(F)F)c1-c1nc2c(cc1F)c([C@H](NS(=O)(=O)C1CC1)C(F)F)cn2C1CCC1 [Compound 160, N-((1S)-1-(6-(2-cyano-4-(trifluoromethyl)pyridin-3-yl)-1-cyclobutyl-5-fluoro-1H-pyrrolo[2,3-b]pyridin-3-yl)-2,2-difluoroethyl)cyclopropanesulfonamide]	> 7.00
N#Cc1nccc(C(F)F)c1-c1cc2c(cc1F)c([C@H](NS(=O)(=O)C1CC1)C(F)F)cn2C1CCC1 [Compound 161, N-((1S)-1-(6-(2-cyano-4-(difluoromethyl)pyridin-3-yl)-1-cyclobutyl-5-fluoro-1H-indol-3-yl)-2,2-difluoroethyl)cyclopropanesulfonamide]	> 7.00
N#Cc1nccc(C(F)F)c1-c1nc2c(cc1F)c([C@H](NS(=O)(=O)C1CC1)C(F)F)cn2C1CCC1 [Compound 162, N-((1S)-1-(6-(2-cyano-4-(difluoromethyl)pyridin-3-yl)-1-cyclobutyl-5-fluoro-1H-pyrrolo[2,3-b]pyridin-3-yl)-2,2-difluoroethyl)cyclopropanesulfonamide]	> 7.00
[2H]C1([2H])CC(S(=O)(=O)N[C@@H](c2cn(CC(C)(C)C)c3cc(-c4ccccc4C(F)(F)F)ccc23)C(F)F)C1 [Compound 163, (S)—N-(2,2-difluoro-1-(1-neopentyl-6-(2-(trifluoromethyl)phenyl)-1H-indol-3-yl)ethyl)cyclobutane-1-sulfonamide-3,3-d2]	> 7.00
